Test results taken from patent US12139461B1, “Piperidine compounds as PDE5 inhibitors” (KING SAUD UNIVERSITY, priority 2024, dated 2024).

Columns and labels:
[1] = biological target: Phosphodiesterase type 5 (PDE5) (Homo sapiens (Human), UniProt O76074); test: In vitro phosphodiesterase type 5 (PDE5) inhibition assay; assay type: biochemical; conditions: purified PDE5, IMAP FP assay
[2] = test system: male diabetic rats; test: Copulatory behavior testing in diabetic animals; assay type: in vivo, rat; conditions: 5 mg/kg/day for 14 days; for ejaculation latency (EL) / intromission frequency (IF) / intromission latency (IL) / mount frequency (MF) / mount latency (ML) / post-ejaculatory interval (PEI) / copulatory efficiency (CE) / mean intromission interval (MII): male diabetic rats; for copulatory efficiency (CE): CE=(IF/MF)x100; for mean intromission interval (MII): MII=EL/IF; for sexual function in diabetic rats: versus diabetic control rats
Protocol: Nearly 90% of the population suffering from diabetic conditions report disturbances in sexual function, encompassing a decrease in libido, impotence and infertility (Kamenov Z A, Exp Clin Endocrinol Diabetes 123 (2015) 141-158). Diabetic was induced in experimental animals by intraperitoneal administration of streptozotocin in separate groups of male animals. Diabetes was induced by a single intraperitoneal injection of freshly prepared 65 mg/kg streptozotocin in […] citrate buffer, pH 4.4 (Mendez J D and Ramos H G, Arch Med Res 25 (1994) 367-375). All rats receiving streptozotocin were given a 10% sucrose solution in the first 48 h after injection to prevent hypoglycemia. After 72 h of streptozotocin administration, rats with fasting serum glucose more than 350 mg/dL were considered as diabetic. Glibenclamide was given by oral gavage once a day (10 mg/kg/day) to diabetic animals to avoid mortality throughout the investigation (Abdel-Aziz A A-M. et al., Eur J Med Chem 46 (2011) 4324-4329). The male rats were trained for sexual behavior study before induction of diabetes and treatment, as mentioned above. Diabetic rats were given a daily oral dose of 5 mg/kg of compounds C9, C14 and C21 for 14 consecutive days. The sexual behavior of the animals was assessed on day 15 of the treatment. The copulatory behavior testing was performed, and CE and MII were calculated.

[3] = test system: sexually experienced male rats; test: Penile erection index (noncontact erection test); assay type: in vivo, rat; conditions: for ED50: Rattus norvegicus, linear regression of proportion of responding rats, read-out: effective dose ED50 (dose required to give 50% responding rats); for erectile response: oral treatment
Protocol: The penile erection index is an established means of determining the erection promoting properties of a substance. Determination of penile erection in a noncontact position was calculated as reported previously (Haripriya V M. et al., Andrologia 51 (2019) e13180; Sharma V. et al., J Ethnopharmacol 143 (2012) 201-206, the contents of each of which are hereby incorporated by reference in their entirety). The sexually experienced male rats of all groups were given the treatment 30 minutes before experimentation. The number of animals for each dose was ten rats in each experiment. […] The results shown are the average of three separate experiments. Control animals were given 0.5% CMC as a vehicle.
The rats of each group were placed in the observation cages (five at a time) divided into half by two sheets of metal mesh, preventing contact but allowing auditory, visual and olfactory stimuli. After a 5-min adaptation period, the test was started by placing an estrus female on the other side of the cage. Penile erection was recorded when the rats bent down to lick their erect penis. Homosexual mounting was also counted when a male rat mounted another male rat performing pelvic thrusts with or without a penile erection. […] The effective dose ED50 (the dose required to give 50% responding rats) for examined compounds was calculated using linear regression analysis by GraphPad software with the proportion of responding rats as the input data and expressed as μmol/kg.

[4] = test system: male rats; test: Copulatory behavior testing; assay type: in vivo, rat; conditions: 5 mg/kg oral; for copulatory efficiency (CE): CE=(IF/MF)x100; for mean intromission interval (MII): MII=EL/IF
Protocol: Sexually mature Wistar albino male and female rats weighing 150-180 g (10-14 weeks old) were used in our study. Males were trained for sexual behavior with estrus females, that is, two hours a day for one week, before the investigations. Females were brought into the estrous phase artificially by sequential injection of estradiol benzoate (Sigma) (25 μg/animal) and progesterone (Sigma) (250 μg/animal) subcutaneously, 48 and 4 hours before pairing, respectively. Only those sexually active animals were used subsequently in the study. Sexually active rats were isolated and housed in separate cages at room temperature (24±2° C.) on a reversed day/night cycle with a relative humidity of 50-55% during the experimental period. All sexual studies were performed in a calm laboratory condition under subdued light. For the toxicity study, adult Wistar albino male rats were used separately. Rats were obtained from the Experimental Animal Care Center, College of Pharmacy, King Saud University. Animals were fed with a standard pellet diet and provided water ad libitum. All experiments were performed per the protocols and recommendations of the NIH Guide for the Care and Use of Laboratory Animals and the legal requirements of King Saud University for investigations on humans and animals.
Based on a preliminary study to select the appropriate dose for the promising synthesized compounds, the compounds were administered separately to sexually experienced male rats by oral gavage at 5 mg/kg in a 0.5% sodium carboxymethyl cellulose (CMC) vehicle. […] All solutions were freshly prepared at a concentration that allowed the administration of 1 ml/kg.
After drug treatment, rats were housed separately in transparent cages for acclimation. Thirty minutes after drug treatment, a sexually receptive female rat with estrous phase was introduced in each cage for 30 min and the following parameters of the copulatory behavior were recorded: namely mount latency (ML; time from introduction of the female until the first mount with or without penile insertion, it measures the degree of arousal or sexual interest or libido of the male), mount frequency (MF; the number of mounts until ejaculation, it is a measure of the degree of the male's sexual interest or libido), intromission latency (IL; time from introduction of the female until the first intromission, it measures the degree of sexual excitement and erection), intromission frequency (IF; number of vaginal penetrations until ejaculation, it measures the degree of erection), ejaculation latency (EL; time from the first intromission until ejaculation, it determines the excellent organization of copulation in rats) and post-ejaculatory interval (PEI; time interval between an ejaculation and the following first mount, it measures the refractory period that comes after ejaculation). Latency values represent the number of seconds that elapses from the introduction of the female into the copulatory arena until the male executes the first mount, intromission or ejaculation. Frequency values represent the number of ejaculations, mounts or intromission recorded during the copulatory test.
Depending on these parameters, the following can be calculated: Copulatory efficiency (CE)=(IF/MF)×100 and mean intromission interval (MII)=EL/IF as previously described (Aydogan F. et al., J Ethnopharmacol 257 (2020) 112868; Besong E B. et al., Biochem Res Int 2018 (2018) 2869727, the contents of each of which are hereby incorporated by reference in their entirety). Experiments were repeated blindly three times using new fresh (unused) animals in each experiment.

[5] = Evaluation of LD50 (acute oral toxicity); assay type: in vivo; conditions: rat, in vivo, po; single intragastric administration, rats, 24 h
From the text: (§1) Healthy rats were divided into groups of 10 rats and maintained as described above. Rats had free access to water and food, except for a short fasting period before the treatment with the single oral dose of compounds C9, C14 and C21 or the solvent. The compounds were formulated with 1% CMC. An approximate LD50 was initially determined in a pilot study by a so called ‘staircase method’ using a small number of animals (2 each dose) and increasing doses of tested compounds. Three doses were then chosen for the determination of oral median lethal dose (LDso) (500, 1000 and 2000 mg/kg) and given to three groups of rats (10 in each group). Another group of rats (6 rats) was given equal amounts of 1% CMC orally and served as a control group. […] After 24 hours, the number of dead rats was counted in each group. The percentage of animals that had died at each dose level was transformed to probits, and then LD50 was determined by the method of Miller and Tainter, 1944 as described previously (Randhawa M A, J Ayub Med Coll Abbottabad 21 (2009) 184-185, the contents of which are hereby incorporated by reference in their entirety).

[6] = test system: rats; test: Evaluation of LD50 (acute oral toxicity); assay type: in vivo; conditions: single oral dose 500-2000 mg/kg
From the text: as §1

Compound | IC50 [1] [nM] | ejaculation latency (EL) [2] [s] | intromission frequency (IF) [2] | intromission latency (IL) [2] [s] | mount frequency (MF) [2] | mount latency (ML) [2] [s] | post-ejaculatory interval (PEI) [2] [s] | copulatory efficiency (CE) [2] [%] | mean intromission interval (MII) [2] | sexual function in diabetic rats [2] | ED50 ([3]; oral) [µmol/kg] | erectile response ([3]; 1.25-5 mg/kg) | penile erection index (PEI) ([3]; oral, dose 1.25 mg/kg) | penile erection index (PEI) ([3]; oral, dose 2.5 mg/kg) | penile erection index (PEI) ([3]; oral, dose 5 mg/kg) | efficacy in improving copulatory behavior [4] | ejaculation latency (EL) [4] [s] | intromission frequency (IF) [4] | intromission latency (IL) [4] [s] | mount frequency (MF) [4] | also measured
NS(=O)(=O)c1ccc(CNC(=O)CN2CCC(Cc3ccccc3)CC2)cc1 [Compound C14, 2-(4-Benzylpiperidin-1-yl)-N-(4-sulfamoylbenzyl)acetamide] | 39.4 | 208.3 | 3.8 | 327.6 | 10.6 | 158.0 | 505.6 | 35.6 | 55.7 | restored | 10.1 | statistically elevated | 26.6 ± 3.4 | 46.6 ± 3.3 | 90.0 ± 11.5 | more pronounced | 425.1 | 20.6 | 122.6 | 27.3 | animal response (proportion of responding rats) with dose ([3]; oral, 1.25-5 mg/kg): higher response; mount latency (ML) [4]: 54.6 s; post-ejaculatory interval (PEI) [4]: 277.1 s; copulatory efficiency (CE) [4]: 76.2%; mean intromission interval (MII) [4]: 20.8; LD50 at 24 h [5]: > 2000 mg/kg; toxic symptoms after oral dosing [6]: gradually became drowsy and less responsive
O=S(=O)(c1ccc(Cl)cc1Cl)N1CCC(Cc2ccccc2)CC1 [Compound C21, 4-Benzyl-1-((2,4-dichlorophenyl)sulfonyl)piperidine] | 41.2 | 248.5 | 4.3 | 326.0 | 10.6 | 154.6 | 510.5 | 41.1 | 59.1 | restored | 14.3 | statistically elevated | 26.5 ± 6.6 | 46.6 ± 3.3 | 63.3 ± 3.4 | more pronounced | 395.0 | 16.8 | 178.6 | 26.6 | mount latency (ML) [4]: 72.5 s; post-ejaculatory interval (PEI) [4]: 298.0 s; copulatory efficiency (CE) [4]: 63.6%; mean intromission interval (MII) [4]: 23.74; LD50 at 24 h [5]: > 2000 mg/kg; toxic symptoms after oral dosing [6]: gradually became drowsy and less responsive
